From patent US20130217694A1, “METHOD OF REDUCING THE SEVERITY OF INFLAMMATORY DERMATOLOGICAL CONDITIONS” (Allergan, Inc.., priority 2003, published 2013)

Tests used:
[1] = system: mice; assay: NMDA-induced tactile hypersensitivity in mice; format: in vivo, mouse; conditions: result in words
Experimental: Spinal drug injections were performed as follows. […] Briefly, a sterile 30-gauge ½ inch needle attached to a microsyringe was inserted between the L5 and L6 vertebrae. The mouse was held firmly by the pelvic girdle in one hand, while the syringe was held in the other hand at an angle of approximately 20° above the vertebral column. The needle was inserted into the tissue to one side of the L6 spinous process, into the groove between the spinous and transverse processes. The needle angle was decreased to about 10°, and the needle slowly advanced forward into the intervertebral space until a pop was felt and there was a visible serpentine tail movement. Compounds were slowly injected in the subarachnoid space in a volume of 5 μl. Each compound was tested at multiple doses. The minimal efficacious dose was used for all subsequent experiments.
Sensitivity to light touch was quantified by scoring the response of mice to light stroking of their flanks with a small paintbrush, which is not normally painful. […] Statistical calculations of significance for in vivo studies were done using a two-tailed Students t-test.

[2] = biological target: T1, bovine α-1A adrenergic receptor (Bos taurus, UniProt P18130); assay: Intracellular Ca+2 response in HEK293 cells expressing bovine α-1A receptor; format: cell-based; conditions: for bovine α1A % E: percent efficacy relative to phenylephrine; for agonist activity at the α-1A receptor: result in words
T1 sequence (P18130 1-466): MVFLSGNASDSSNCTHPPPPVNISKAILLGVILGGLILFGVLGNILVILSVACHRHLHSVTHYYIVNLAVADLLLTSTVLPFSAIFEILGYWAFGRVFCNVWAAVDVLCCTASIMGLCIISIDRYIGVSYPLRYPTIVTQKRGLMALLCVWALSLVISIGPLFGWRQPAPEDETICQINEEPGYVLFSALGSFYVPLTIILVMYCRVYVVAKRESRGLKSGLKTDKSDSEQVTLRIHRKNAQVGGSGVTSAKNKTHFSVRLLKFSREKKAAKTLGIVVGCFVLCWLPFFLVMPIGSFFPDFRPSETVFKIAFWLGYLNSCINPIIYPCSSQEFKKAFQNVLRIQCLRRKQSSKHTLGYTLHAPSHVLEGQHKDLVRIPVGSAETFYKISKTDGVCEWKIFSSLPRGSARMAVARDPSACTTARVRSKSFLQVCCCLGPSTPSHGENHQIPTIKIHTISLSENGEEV
Experimental: (§1) The bovine α-1A and hamster α-1B receptor supernatants were added, in varying amounts, to naive HEK293 cells, which were then incubated for 48 hours. The transduced cell populations were replated at a lower density and grown in media containing 0.25 ug/ml puromycin. […] Receptor density was measured in a prazosin radioligand binding assay.
(§2) Intracellular Ca^+2 responses were measured as follows in HEK293 cells stably expressing either the bovine α-1A or hamster α-1B adrenergic receptor. Between 40,000 to 50,000 cells were plated per well in 96-well poly-D-lysine coated plates in 0.2 ml DMEM containing 10% heat-inactivated fetal calf serum, 1% antibiotic-antimycotic and 0.25 μg/ml puromycin one day prior to use. Cells were washed twice with HBSS supplemented with 10 mM HEPES, 2.0 mM CaCl2 and 2.5 mM probenicid, and subsequently incubated at 37° C. for 60 minutes with 4 μM Fluo-4 (Molecular Probes; Eugene, Oreg.). The extracellular dye was washed from the plates twice prior to placing the plates in the fluorometric imaging plate reader (FLIPR; Molecular Devices; Sunnyvale, Calif.). Ligands were diluted in HBSS and aliquoted into a 96-well microplate. Drugs were tested over the concentration range of 0.64 nM to 10,000 nM. Data for Ca^+2 responses were obtained in arbitrary fluorescence units.

[3] = biological target: T2, hamster α-1B adrenergic receptor (Mesocricetus auratus, UniProt P18841); format: cell-based; conditions: for hamster α1B % E: percent efficacy relative to phenylephrine; for agonist activity at the α-1B receptor: result in words
T2 sequence (P18841 1-515): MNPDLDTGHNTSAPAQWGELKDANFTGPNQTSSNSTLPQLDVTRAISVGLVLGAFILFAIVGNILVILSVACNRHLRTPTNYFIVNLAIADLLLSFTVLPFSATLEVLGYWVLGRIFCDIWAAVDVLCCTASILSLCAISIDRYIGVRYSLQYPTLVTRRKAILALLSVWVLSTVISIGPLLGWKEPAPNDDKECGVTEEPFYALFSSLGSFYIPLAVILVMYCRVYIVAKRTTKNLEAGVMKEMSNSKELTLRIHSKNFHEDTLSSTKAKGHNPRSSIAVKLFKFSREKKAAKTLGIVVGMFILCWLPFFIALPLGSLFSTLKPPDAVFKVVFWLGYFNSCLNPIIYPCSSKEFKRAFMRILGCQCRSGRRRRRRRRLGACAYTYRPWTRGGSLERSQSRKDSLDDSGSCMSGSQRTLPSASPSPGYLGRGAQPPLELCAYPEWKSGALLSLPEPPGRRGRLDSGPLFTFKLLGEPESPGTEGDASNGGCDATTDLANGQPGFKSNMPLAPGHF
Experimental: as §1, §2

SMILES | inhibition of NMDA-induced tactile hypersensitivity ([1]; wildtype mice) | inhibition of NMDA-induced tactile hypersensitivity ([1]; α-2A knockout mice) | inhibition of NMDA-induced tactile hypersensitivity ([1]; α-2C knockout mice) | bovine α1A % E [2] | agonist activity at the α-1A receptor [2] | hamster α1B % E [3] | agonist activity at the α-1B receptor [3]
Clc1cccc(Cl)c1N=C1NCCN1 [Clonidine] | complete inhibition of tactile hypersensitivity | neither clonidine nor brimonidine inhibited | complete inhibition of tactile hypersensitivity | 62% | partial agonists | 63% | partial agonists
Brc1c(NC2=NCCN2)ccc2nccnc12 [Brimonidine, 5-bromo-6-(2-imidazolin-2-ylamino)quinoxaline] | complete inhibition of tactile hypersensitivity | neither clonidine nor brimonidine inhibited | complete inhibition of tactile hypersensitivity | 15% | weak activity | 12% | no activity
